These are literature values, as cited in patent publication US20040024041A1, “Dermal therapeutic system containing non-steroidal antiphlogistics with selective cox-2 inhibition” (priority 2000, published 2004).

For data set [1] the following is noted: patients receiving rofecoxib therapy vs patients receiving other non-steroidal anti-inflammatory drugs as comparison substance.

Each structure is given as a SMILES string.

As for `CS(=O)(=O)c1ccc(C2=C(c3ccccc3)C(=O)OC2)cc1` [rofecoxib, 3-phenyl-4-[4-methylsulfonylphenyl]-2-(5H)furanone], the “percentage of patients with endoscopically detectable gastroduodenal ulcers” value (after 12 weeks of treatment, rofecoxib 25 or 50 mg/day vs placebo) is “comparable percentage”. For the same compound, the “cumulative incidence of gastroduodenal ulcers” value (over 12 and 24 weeks, respectively, vs ibuprofen 2 400 mg/day) is reported as “significantly less”. In addition, the “perforations, ulcers and bleeds in the upper gastrointestinal tract” value in data set [1] is reported as “significantly fewer”.
